The test system of one assay is uterus. Put plainly: Wet uterine weight in ovariectomized rats (post-menopausal model). The format is in vivo, female Sprague Dawley rats (ovariectomized). Particulars: Rattus norvegicus, 96 h, oral, daily for 4 days, OVX rats, read-out: Uterine Weight (% increase vs. OVX). The procedure:
In the examples illustrating the methods, a post-menopausal model was used in which effects of different treatments upon circulating lipids were determined.
(§1) Seventy-five day old female Sprague Dawley rats (weight range of 200 to 225 g) were obtained from Charles River Laboratories (Portage, Mich.). The animals were either bilaterally ovariectomized (OVX) or exposed to a Sham surgical procedure at Charles River Laboratories, and then shipped after one week. Upon arrival, they were housed in metal hanging cages in groups of 3 or 4 per cage and had ad libitum access to food (calcium content approximately 0.5%) and water for one week. Room temperature was maintained at 22.2°±1.7° C. with a minimum relative humidity of 40%. The photoperiod in the room was 12 hours light and 12 hours dark.
(§2) Dosing Regimen Tissue Collection. After a one week acclimation period (therefore, two weeks post-OVX) daily dosing with test compound was initiated. 17a-ethynyl estradiol or the test compound were given orally, unless otherwise stated, as a suspension in 1% carboxymethylcellulose or dissolved in 20% cyclodextrin. Animals were dosed daily for 4 days. Following the dosing regimen, animals were weighed and anesthetized with a ketamine: Xylazine (2:1, V:V) mixture and a blood sample was collected by cardiac puncture. The animals were then sacrificed by asphyxiation with CO2, the uterus was removed through a midline incision, and a wet uterine weight was determined.
(§3) The data presented in the Tables 1 below reflects the response of 5 to 6 rats per treatment.

In assay [1] the test system is Uterine Eosinophil Peroxidase (EPO). Nature of the assay: Uterine Eosinophil Peroxidase (EPO) Assay. It counts as in vivo, female Sprague Dawley rats (ovariectomized). Particulars: oral, daily for 4 days, OVX rats, 450 nm. The arrangement: Uterine EPO (V. max): unit not given here.
From the text: as §1, §2
Uterine Eosinophil Peroxidase (EPO) Assay. Uteri were kept at 4° C. until time of enzymatic analysis. The uteri were then homogenized in 50 volumes of 50 mM Tris buffer (pH-8.0) containing 0.005% Triton X-100. Upon addition of 0.01% hydrogen peroxide and 10 mM O-phenylenediamine (final concentrations) in Tris buffer, increase in absorbance was monitored for one minute at 450 nm. The presence of eosonophils in the uterus is an indication of estrogenic activity of a compound. The maximal velocity of a 15 second interval was determined over the initial, linear portion of the reaction curve.
As is expressed in the below data, estrogenicity also was assessed by evaluating the adverse response of eosinophil infiltration into the uterus.
as §3

The subject of another assay is Serum Cholesterol. Nature of the assay: Serum cholesterol analysis in ovariectomized rats. Particulars: Rattus norvegicus, 96 h, oral, daily for 4 days, OVX rats, read-out: Serum Cholesterol (% decrease vs. OVX). It counts as in vivo, female Sprague Dawley rats (ovariectomized).
From the text: as §1, §2
Cholesterol Analysis. Blood samples were allowed to clot at room temperature for 2 hours, and serum was obtained following centrifugation for 10 minutes at 3000 rpm. Serum cholesterol was determined using a Boehringer Mannheim Diagnostics high performance cholesterol assay. Briefly the cholesterol was oxidized to cholest-4-en-3-one and hydrogen peroxide. The hydrogen peroxide was then reacted with phenol and 4-aminophenazone in the presence of peroxidase to produce a p-quinone imine dye, which was read spectrophotemetrically at 500 nm. Cholesterol concentration was then calculated against a standard curve. The entire assay was automated using a Biomek Automated Workstation.
as §3

Another assay has as its system Distal Femur Metaphysis. Put plainly: Osteoporosis test, distal femur metaphysis X-ray image analysis. It counts as in vivo, female Sprague Dawley rats (ovariectomized). Particulars: oral, daily for 35 days, in 20% hydroxypropyl b-cyclodextrin. The source says:
Seventy-five day old female Sprague Dawley rats (weight range of 200 to 225 g) were obtained from Charles River Laboratories (Portage, Mich.). The animals were either bilaterally ovariectomized (OVX) or exposed to a Sham surgical procedure at Charles River Laboratories, and then shipped after one week. Upon arrival, they were housed in metal hanging cages in groups of 3 or 4 per cage and had ad libitum access to food (calcium content approximately 0.5%) and water for one week. Room temperature was maintained at 22.2°±1.7° C. with a minimum relative humidity of 40%. The photoperiod in the room was 12 hours light and 12 hours dark. Following the General Preparation Procedure, infra, the rats were treated daily for 35 days (6 rats per treatment group) and sacrificed by carbon dioxide asphyxiation on the 36th day. The 35 day time period was sufficient to allow maximal reduction in bone density, measured as described herein. At the time of sacrifice, the uteri were removed, dissected free of extraneous tissue, and the fluid contents were expelled before determination of wet weight in order to confirm estrogen deficiency associated with complete ovariectomy. […] The uteri were then placed in 10% neutral buffered formalin to allow for subsequent histological analysis. The right femurs were excised and digitilized x-rays generated and analyzed by an image analysis program (NIH image) at the distal metaphysis. The proximal aspect of the tibiae from these animals were also scanned by quantitative computed tomography. In accordance with the above procedures, compounds of the present invention and ethynyl estradiol (EE2) in 20% hydroxypropyl b-cyclodextrin were orally administered to test animals. Distal femur metaphysis data presented in Tables 2 and 3 below are the results of formula I compound treatments compared to intact and ovariectomized test animals. Results are reported as percent protection relative to ovariectomy.

The test system of assay [2] is MCF-7 breast adenocarcinoma cells. Nature of the assay: MCF-7 Proliferation Assay (tritiated thymidine). The format is cell-based. Particulars: Homo sapiens, MCF7; MCF-7 cells, 48 hours, tritiated thymidine pulse 4 hours. On the procedure: MCF-7 breast adenocarcinoma cells (ATCC HTB 22) were maintained in MEM (minimal essential medium, phenol red-free, Sigma, St. Louis, Mo.) supplimented with 10% fetal bovine serum […] (V/V), L-glutamine (2 mM), sodium pyruvate (1 mM), HEPES {(N-[2-hydroxyethyl]piperazine-N'-[2-ethanesulfonic acid]10 mM)}, non-essential amino acids and bovine insulin (1 ug/mL) (maintenance medium). Ten days prior to assay, MCF-7 cells were switched to maintenance medium supplemented with 10% dextran coated charcoal stripped fetal bovine serum (DCC-FBS) assay medium) in place of 10% FBS to deplete internal stores of steroids. MCF-7 cells were removed from maintenance flasks using cell dissociation medium (Ca++/Mg++ free HBSS (phenol red-free) supplemented with 10 mM HEPES and 2 mM EDTA). Cells were washed twice with assay medium and adjusted to 80,000 cells/mL. Approximately […] (8,000 cells) were added to flat-bottom microculture wells (Costar 3596) and incubated at 37° C. in a 5% CO2 humidified incubator for 48 hours to allow for cell adherence and equilibration after transfer. Serial dilutions of drugs or DMSO as a diluent control were prepared in assay medium and […] to triplicate microcultures followed by […] assay medium for a final volume of […]. After an additional 48 hours at 37° C. in a 5% CO2 humidified incubator, microcultures were pulsed with tritiated thymidine (1 uCi/well) for 4 hours. Cultures were terminated by freezing at -70° C. for 24 hours followed by thawing and harvesting of microcultures using a Skatron Semiautomatic Cell Harvester. Samples were counted by liquid scintillation using a Wallac BetaPlace b counter. Results in Table 3 below show the IC50 for certain compounds of the present invention.

The term IC50 denotes the concentration that inhibits the measured activity by half. As for `Oc1ccc2c(c1)OC(c1ccc(OCCN3CCCCC3)cc1)c1c-2sc2cc(O)ccc12` (centres unmarked) [Example 1, 3,9-Dihydroxy-6-[4-[2-(1-piperidinyl)ethoxy]phenyl]-6-H-[1]benzothieno[3,2-c][1]benzopyran], the change in vivo at 0.1 mg/kg in the assay on uterus (0.1 mg/kg) came out at 25.3%. Moreover, the change in vivo at 1 mg/kg with uterus (1.0 mg/kg) turned out to be 9.2%. The change in vivo at 10 mg/kg in the assay with uterus (10.0 mg/kg) was found to be 5.9%. For the same compound, the “Uterine EPO (V. max)” value in assay [1] (0.1 mg/kg) is recorded as 7.8; in assay [1] (1.0 mg/kg), 3.0; in assay [1] (10.0 mg/kg) it was 2.1. Further, the inhibition in vivo at 0.1 mg/kg in the assay with Serum Cholesterol (0.1 mg/kg) turned out to be 72.8%. Moreover, in the assay on Serum Cholesterol (1.0 mg/kg), the inhibition in vivo at 1 mg/kg amounted to 51%. The inhibition in vivo at 10 mg/kg in the assay on Serum Cholesterol (10.0 mg/kg) was 54.6%. The “Distal Femur Metaphysis (X-ray Image Analysis-Gray Score), percent protection relative to ovariectomy” value in the assay with Distal Femur Metaphysis (0.01 mg/kg) amounted to 14.2%; in the assay with Distal Femur Metaphysis (0.1 mg/kg), 49.8%; in the assay with Distal Femur Metaphysis (1.0 mg/kg) it was 51.7%; with Distal Femur Metaphysis (10.0 mg/kg), 48.2%. In assay [2], this compound yielded a half-inhibitory concentration (IC50) of 0.2 nM.
